Columns and labels:
[1] = Punished exploratory behavior (4 plate test), anxiolytic activity; type: in vivo, male mice (NMRI); settings: for Anxiolytic Activity (punished exploration), increase: 30 min before test, control = 100%
Experimental: (§1) Experimental animals used were male mice (NMRI, origin: Ivanovas, Kissleg) of weight 18 to 25 g. The animals were allowed food and water ad lib.. but, according to the test, they were fasted for two to 16 hours before the beginning of the test with water allowed ad lib.
(§2) The substances under test were applied orally by means of a stomach tube in a 0.8% methocel suspension 30 minutes before the start of the test.
(§3) The model for testing for anxiolytic activity is based on the experimental creation of a conflict in the animals by counteracting the natural exploratory tendencies of the animals with an anxiety-inducing stimulus (aversive foot shock, aversive illumination).
The test box has a metal base consisting of four rectangles of equal size. After placing the animal in the box it can freely explore for 15 seconds. Then every transition from one metal plate of the base to another is punished by a mild foot shock (1.5 mA for 0.5 seconds). The number of tolerated foot shocks within one minute is the measure of the anxiolytic activity of the substance. The average number of accepted foot shock by the control animals was taken as 100%. Ten animals were examined per dose.

[2] = Ataxia threshold; type: in vivo, male mice (NMRI); settings: oral, ">": no effect up to this highest examined dosage
Experimental: as §1, §2

[3] = Effect on duration of hexobarbital anesthesia (hypnotic activity); type: in vivo, male mice (NMRI); settings: hexobarbital sodium 70 mg/kg i.v.
Experimental: as §1, §2
Seventy mg/kg (10 ml/kg body weight) of hexobarbital sodium were injected into a tail vein within a period of 15 seconds. Ten animals were used per dose. The criterion for the end of anesthesia was the moment when the animal roused itself from lying on its side. The average duration of anesthesia in the control animals was taken as 100 and the increases measured were calculated as a percentage of this value.

[4] = biological target: benzodiazepine rec.; test: Receptor binding: benzodiazepine rec.
[5] = test system: benzodiazepine rec.; test: GABA-Ratio, benzodiazepine receptor binding; settings: in words
[6] = LD50; design: species or system male mice (NMRI); settings: mouse, in vivo; oral; ">": no effect up to this highest examined dosage
Experimental: as §1, §2

[7] = Motility test (spontaneous motility); type: in vivo, male mice (NMRI); settings: 30 min
Experimental: as §1, §2
The spontaneous motility was measured simultaneously for a test group of five animals each for 30 minutes in two opaque cages (length 50 cm, width 25 cm, height 30 cm) using three infrared light barriers in each case. The sum of the impulses registered for the control group during this period was taken as 100% and the deviation in the case of the test group from this value was calculated in percent.

[8] = Unpunished exploratory behavior (light-dark preference), anxiolytic activity; type: in vivo, male mice (NMRI); settings: 30 min before test, control = 100%
Experimental: as §1, §2, §3
The testing equipment consists of a larger, brightly illuminated compartment and a smaller dark compartment. The animal is placed in the dark compartment and observed for ten minutes. The number of transitions between the compartments and the time spent in the two compartments are measured. The average number of transitions between the compartments of the control animals is taken as 100%. Ten animals were tested per dose.

SMILES	Ataxia Threshold [2] [mg/kg]	Hypnotic Activity (increase in sleep time) ([3]; 25 mg/kg oral) [%]	Kd [4] [nM]	GABA-Ratio, agonist character [5]	LD50 [6] [mg/kg]	Anxiolytic Activity (punished exploration), increase ([1]; 15 mg/kg oral) [%]	also measured
Cc1nc2n(n1)-c1ccc(Cl)cc1S(=O)(c1ccccc1)=N2 (racemic) [Example 1a, (±)-7-Chloro-2-methyl-5-phenyl-[1,2,4]triazolo[5,1-c][1,2,4]benzothiadizine-5-oxide]	> 100	123	1500	part. agonist	1600		Anxiolytic activity (in words) ([1]; 7.5 to 45 mg/kg, compared with diazepam 1 to 4 mg/kg): comparable with that of diazapam (1 to 4 mg/kg); Hypnotic Activity (increase in sleep time) ([3]; 50 mg/kg oral): 175%
Cc1nc2n(n1)-c1ccc(Cl)cc1S(=O)(c1cccc(Cl)c1)=N2 (racemic) [Example 1c, (±)-7-Chloro-5-(3-chlorophenyl)-2-methyl-[1,2,4]triazolo[5,1-c][1,2,4]benzothiadiazine-5-oxide]	> 100		10000		> 400	35	Spontaneous Motility, increase ([7]; 15 mg/kg oral, control = 100%): 12%; Hypnotic Activity (increase in sleep time) ([3]; 15 mg/kg oral): 6%
Cc1nc2n(n1)-c1ccc(Cl)cc1S(=O)(c1ccccc1Cl)=N2 (racemic) [Example 2c, (±)-7-Chloro-2-methyl-5-(2-chlorophenyl)[1,2,4]triazolo[5,1-c][1,2,4]benzothiadiazine-5-oxide]	> 100		20	part. ago.	> 400		Anxiolytic Activity (punished exploration), increase ([1]; 30 mg/kg oral): 66%; Spontaneous Motility, increase ([7]; 30 mg/kg oral, control = 100%): 6%; Hypnotic Activity (increase in sleep time) ([3]; 30 mg/kg oral): 96%
O=S1(c2ccccc2)=Nc2ncnn2-c2ccc(Cl)cc21 (racemic) [Example 4a, (±)-7-Chloro-5-phenyl-[1,2,4]triazolo[5,1-c][1,2,4]benzothiadiazine-5-oxide]	> 100		3500	part. ago.	> 400	45	Spontaneous Motility (effect in words) ([7]; 100 mg/kg oral): no effect; Hypnotic Activity (increase in sleep time) ([3]; 100 mg/kg oral): 224%
O=S1(c2ccccc2)=Nc2ncnn2-c2cc(Cl)c(Br)cc21 (racemic) [Example 4b, (±)-7-Bromo-8-chloro-5-phenyl-[1,2,4]triazolo[5,1-c][1,2,4]benzothiadiazine-5-oxide]	> 400	21	100000		> 400		Anxiolytic Activity (punished exploration), increase ([1]; 12.5 mg/kg oral): 34%; Spontaneous Motility, increase ([7]; 12.5 mg/kg oral, control = 100%): 83%
CN1C(=O)CN=C(c2ccccc2)c2cc(Cl)ccc21 [Diazepam, reference compound]	5		64				Anxiolytic Activity (unpunished exploration), increase ([8]; 2 mg/kg oral): 43%; Anxiolytic Activity (unpunished exploration), decrease ([8]; 5 mg/kg oral): 33%; Spontaneous Motility, decrease ([7]; 5 mg/kg oral, control = 100%): 67%; Ataxia Threshold ([2]; listed as diazepam): approximately 5 mg/kg; Hypnotic Activity (increase in sleep time) ([3]; 2 mg/kg oral): 286%; Hypnotic Activity (increase in sleep time) ([3]; 4 mg/kg oral): 320%

— patent US4612311A, “1,2,4-benzothiadiazine oxide derivatives” (Warner-Lambert Company, priority 1984, dated 1986)
